Measurements taken from patent US11873517B2, “Candida tropicalis strain having improved tolerance to the cytotoxicity of substrates, and method for producing dicarboxylic acid using same” (priority 2018, dated 2024).

Tested on: Candida tropicalis MYA_3404 strain
Experiment: toxicity test of substrates and product: growth of the strain in YNB medium
Details: 36 hours; for growth of the strain in the medium to which the substance was added, compared to the control: added at 5 g/L to YNB medium, 30° C., 200 rpm, FIG. 1

Structure (SMILES) | growth of the strain in the medium to which the substance was added, compared to the control | cytotoxicity compared to the sebacic acid (5 g/L in YNB medium)
CCCCCCCCCC(=O)O [DA, decanoic acid] | did not grow | –
CCCCCCCCCC(=O)OC [DAME, decanoic acid methyl ester] | did not grow | stronger cytotoxicity
O=C(O)CCCCCCCCC(=O)O [sebacic acid] | the growth rate and the total cell mass of the strain decreased | –
